Assay results from patent publication US11519859B2, “Rhodol-based thallium sensors for high-throughput screening of potassium channels” (priority 2018, dated 2022).

What was measured:
[1] = tested on: HEK-293 cells co-expressing GIRK1 and GIRK2; conditions: dye loading 1 h, 1 mM Tl^+ stimulus; for on/off (Tl^+ flux assay), maximum fold increase in fluorescence after Tl^+ addition: 10 μM ML297, 2 mM Allura Red AC, n = 6
Method: HEK-293 cells co-expressing GIRK1 and GIRK2 were cultured to 80% confluence in a T75 flask (Techno Plastic Products, Trasadingen, CH) at 37° C. and 5% CO2 in medium consisting of Minimal Essential Medium (Cellgro, Manassas, Va.) containing 1× Glutagro (Cellgro, Manassas, Va.) and 10% (v/v) heat-inactivated fetal bovine serum (Life Technologies, Carlsbad, Calif.). The cells were dislodged by treatment with TrypLE (Gibco/Life Technologies, Carlsbad, Calif.), diluted in medium, and plated on clear bottomed, black-walled, amine coated 384 well plates (BD Biosciences, Billerica, Mass.) at a density ˜20,000 cells per well. The plated cells were incubated overnight at 37° C. and 5% CO2 and used for the assay the next day.
Dye loading solutions of Thallos were prepared by dissolving a 25 μg aliquot in 30 μL of 6.7% Pluoronic F-127 (w/v) in DMSO and diluting the resulting solution 1:1000 into assay buffer. Culture medium was removed and replaced with 20 μL of dye loading buffer and incubated in the dark at room temperature for 1 h.
Assay—Assays were conducted on a WaveFront Biosciences Panoptic 1 or 2 (WaveFront Biosciences, Franklin, Tenn.) as indicated. Dye loading solutions were removed and replaced with assay buffer immediately before imaging unless otherwise noted. 10 s following commencement of plate imaging, 20 μL of compound at 2.5× concentration in assay buffer was added and incubated for 120 s at which point 10 μL of Tl^+ at 5× concentration in stimulus buffer (125 mM NaHCO3, 1.8 mM CaSO4, 1 mM MgSO4, 5 mM glucose, 10 mM HEPES, pH 7.4, and T12SO4), and images taken for the following 120 s.
1 mM of T12SO4 (final concentration) was used for stimulus. Assay and stimulus buffers were supplemented with 2 mM of Allura Red AC. […] On/off ratios were calculated by dividing the fluorescence intensity after saturation following Tl^+ addition by the fluorescence intensity immediately after compound addition (n=6).

[2] = Determination of photochemical properties of saponified dyes; type: physicochemical; conditions: for λmax (absorption maximum) / ε (molar absorptivity) / λem (fluorescence emission maximum): after saponification, 150 mM KCl, 10 mM HEPES, 50 μM EDTA, pH = 7.22; for ε (molar absorptivity): at λmax; for fluorescence of saponified dye (in words): reason why spectra were not recorded
Method: Evaluation of the photochemical properties of the active Thallium sensing species was accomplished by saponifying 10 μL of each pro-dye stock solution by incubating with 90 μL of 0.1 M KOH for 20 min at 37° C. with the exception of 8b which was treated with 1% NH4OH for 1 h at 37° C. The saponified compounds were diluted into 150 mM KCl buffered with 10 mM HEPES, pH=7.22 with 50 μM of EDTA. All photochemical measurements were taken in this buffer. Absorbance and fluorescence emission spectra were recorded on a Molecular Devices Spectromax M5 using polystyrene cuvettes with path length=1 cm at 23° C. Molar absorptivities are reported for λmax. The emission wavelengths monitored for recording excitation spectra, the excitation wavelengths used for recording emission spectra, and the corresponding emission cutoff filters used are listed in Table 2 below, and representative excitation and emission spectra are shown in FIG. 7.
To determine the in vitro photochemical properties of the active Tl^+ sensing species, 8a-m were treated with base to remove the acetoxymethyl esters and aryl acetate and then diluted into 10 mM HEPES buffered 150 mM KCl with 50 μM EDTA at pH=7.22.

GIRK1 and GIRK2 = target: T1, GIRK1 and GIRK2 (Homo sapiens, UniProt P48051+P48549); assay: ML297 concentration response curves by Tl+ flux assay; type: cell-based
T1 construct: expressed in transfected cells; host or cells: HEK-293
T1 sequence (P48549 1-501): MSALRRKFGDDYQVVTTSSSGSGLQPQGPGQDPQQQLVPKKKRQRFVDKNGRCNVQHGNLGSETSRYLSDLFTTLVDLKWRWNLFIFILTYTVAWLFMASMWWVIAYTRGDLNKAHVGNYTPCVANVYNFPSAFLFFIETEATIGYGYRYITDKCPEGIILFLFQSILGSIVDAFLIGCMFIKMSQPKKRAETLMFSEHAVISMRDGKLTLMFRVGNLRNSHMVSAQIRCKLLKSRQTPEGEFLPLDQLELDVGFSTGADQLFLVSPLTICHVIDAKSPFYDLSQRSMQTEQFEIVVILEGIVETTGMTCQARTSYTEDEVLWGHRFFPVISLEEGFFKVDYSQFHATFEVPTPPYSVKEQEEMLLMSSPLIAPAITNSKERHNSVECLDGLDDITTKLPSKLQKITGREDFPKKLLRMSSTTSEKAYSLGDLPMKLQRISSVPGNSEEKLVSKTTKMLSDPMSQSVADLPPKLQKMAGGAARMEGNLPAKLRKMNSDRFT
T1 sequence (P48051 1-423): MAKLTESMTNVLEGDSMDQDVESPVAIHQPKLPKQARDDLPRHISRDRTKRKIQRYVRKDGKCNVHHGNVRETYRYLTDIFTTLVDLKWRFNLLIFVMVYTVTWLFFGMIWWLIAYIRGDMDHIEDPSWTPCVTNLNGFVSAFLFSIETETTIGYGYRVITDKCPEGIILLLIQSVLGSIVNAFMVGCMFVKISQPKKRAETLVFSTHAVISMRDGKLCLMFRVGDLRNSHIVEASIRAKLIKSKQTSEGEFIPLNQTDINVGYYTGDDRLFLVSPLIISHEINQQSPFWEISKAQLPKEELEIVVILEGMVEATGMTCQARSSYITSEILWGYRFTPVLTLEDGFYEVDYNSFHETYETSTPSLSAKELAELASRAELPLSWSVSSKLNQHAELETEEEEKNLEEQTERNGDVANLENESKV
Description: ML297 concentration response curves—In general, all concentration-response data were collected on a WaveFront Biosciences Panoptic 2. Thallos treated cells were imaged using 482/35 nm excitation and 536/40 nm emission filters. 8c treated cells were imaged using 529/24 nm excitation and 565/24 nm emission filters (unless otherwise noted). FluxOR Red treated cells were imaged using 544/24 nm excitation and 593/40 nm emission filters (all filters purchased from Semrock, Rochester, N.Y.). FluxOR Red reagent was prepared according to the manufacturer's procedure. 5 μM of 8c was used for dye loading for all conditions.
FluxOR Red procedure with background suppressor. The manufacturer's procedure was followed with the exceptions that the dye loading solution was replaced with 20 μL of assay buffer, solutions of ML297 were prepared in assay buffer plus background suppressor, 20 μL of compound solution was added and 10 μL stimulus buffer (basal) was added according to the general assay protocol described above.
FluxOR Red procedure without background suppressor. The FluxOR Red manufacturer's procedure was followed except the background suppressor was replaced by H2O in all buffers.
Bicarbonate buffer with Allura Red AC. The assay and stimulus buffers described in the general Tl^+ flux procedure were used for dye loading, assay buffer with ML297, and stimulus buffer. All buffers were supplemented with 1 mM of Allura Red AC. The wash step to remove dye loading buffer was omitted.
Bicarbonate buffer without Allura Red AC. The general Tl^+ flux procedure was followed without any solutions supplemented with Allura Red AC.
The fluorescence intensity values of the first 6 time points for each well were averaged and the fluorescence intensity for all time points in the well was divided by this value to provide F/Fo for each time point. The average F/Fo of the vehicle control was then subtracted from each curve and the normalized, control subtracted fluorescence intensity value was sampled at a time point several seconds after Tl^+ addition. […] Fold increases in fluorescence reported in the main paper were calculated by averaging F/Fo between 100 and 110 s after Tl^+ addition. Data presented in FIG. 3 and FIG. 6 were obtained using 8c with the FluxOR Red kit as described above under the FluxOR Red with background suppressor procedure.
The performance of 8c was evaluated in a Tl^+ flux assay to generate a concentration response curve (CRC) of the GIRK activator ML297. […] Normalized, control subtracted fluorescence intensity values were sampled along the curves following Tl^+ addition at each concentration and a CRC was fit using GraphPad Prism (FIG. 3B).

Compound: COc1cc(NC(=O)c2ccc3c(c2)C(=O)OC32c3ccc(NC(C)=O)cc3Oc3cc(OC(C)=O)ccc32)ccc1N(CC(=O)OCOC(C)=O)CC(=O)OCOC(C)=O (stereo not drawn) [Compound 8b, bis(acetoxymethyl) 2,2′-((4-(3′-acetamido-6′-acetoxy-3-oxo-3H-spiro[isobenzofuran-1,9′-xanthen]-5-ylcarboxamido)-2-methoxyphenyl)azanediyl)diacetate]
- fluorescence and response to Tl^+ in cells (in words) [1]: Fluorescence was not detected
- λmax (absorption maximum) [2]: 463 nm
- ε (molar absorptivity) [2]: 24000 M⁻¹ cm⁻¹
- fluorescence of saponified dye (in words) [2]: very weak fluorescence

Compound: COc1cc(NC(=O)c2ccc3c(c2)C(=O)OC32c3ccc(Nc4ccccc4)cc3Oc3cc(OC(C)=O)ccc32)ccc1N(CC(=O)OCOC(C)=O)CC(=O)OCOC(C)=O (stereo not drawn) [Compound 8i, bis(acetoxymethyl) 2,2′-((4-(3′-acetoxy-3-oxo-6′-(phenylamino)-3H-spiro[isobenzofuran-1,9′-xanthen]-5-ylcarboxamido)-2-methoxyphenyl)azanediyl)diacetate]
- on/off (Tl^+ flux assay), maximum fold increase in fluorescence after Tl^+ addition [1]: 1.07 ± 0.01 fold
- fluorescence and response to Tl^+ in cells (in words) [1]: minor increase in fluorescence
- λmax (absorption maximum) [2]: 517 nm
- ε (molar absorptivity) [2]: 52000 M⁻¹ cm⁻¹
- fluorescence of saponified dye (in words) [2]: very weak fluorescence

Compound: COc1cc(NC(=O)c2ccc3c(c2)C(=O)OC32c3ccc(NC4CCCCC4)cc3Oc3cc(OC(C)=O)ccc32)ccc1N(CC(=O)OCOC(C)=O)CC(=O)OCOC(C)=O (stereo not drawn) [Compound 8g, bis(acetoxymethyl) 2,2′-((4-(3′-acetoxy-6′-(cyclohexylamino)-3-oxo-3H-spiro[isobenzofuran-1,9′-xanthen]-5-ylcarboxamido)-2-methoxyphenyl)azanediyl)diacetate]
- on/off (Tl^+ flux assay), maximum fold increase in fluorescence after Tl^+ addition [1]: 4.26 ± 0.07 fold
- λem (fluorescence emission maximum) [2]: 535 nm
- λmax (absorption maximum) [2]: 514 nm
- ε (molar absorptivity) [2]: 57000 M⁻¹ cm⁻¹

Compound: CCCN(CCC)c1ccc2c(c1)Oc1cc(OC(C)=O)ccc1C21OC(=O)c2cc(C(=O)Nc3ccc(N(CC(=O)OCOC(C)=O)CC(=O)OCOC(C)=O)c(OC)c3)ccc21 (stereo not drawn) [Compound 8e, bis(acetoxymethyl) 2,2′-((4-(3′-acetoxy-6′-(dipropylamino)-3-oxo-3H-spiro[isobenzofuran-1,9′-xanthen]-5-ylcarboxamido)-2-methoxyphenyl)azanediyl)diacetate]
- on/off (Tl^+ flux assay), maximum fold increase in fluorescence after Tl^+ addition [1]: 2.94 ± 0.08 fold
- λem (fluorescence emission maximum) [2]: 553 nm
- λmax (absorption maximum) [2]: 527 nm
- ε (molar absorptivity) [2]: 66000 M⁻¹ cm⁻¹

Compound: COc1cc(NC(=O)c2ccc3c(c2)C(=O)OC32c3ccc(OC(C)=O)cc3Oc3cc(N4CCCC4)ccc32)ccc1N(CC(=O)OCOC(C)=O)CC(=O)OCOC(C)=O (stereo not drawn) [Compound 8l, bis(acetoxymethyl) 2,2′-((4-(3′-acetoxy-3-oxo-6′-(pyrrolidin-1-yl)-3H-spiro[isobenzofuran-1,9′-xanthen]-5-ylcarboxamido)-2-methoxyphenyl)azanediyl)diacetate]
- on/off (Tl^+ flux assay), maximum fold increase in fluorescence after Tl^+ addition [1]: 3.54 ± 0.07 fold
- λem (fluorescence emission maximum) [2]: 553 nm
- λmax (absorption maximum) [2]: 525 nm
- ε (molar absorptivity) [2]: 39000 M⁻¹ cm⁻¹

Compound: CCCCNc1ccc2c(c1)Oc1cc(OC(C)=O)ccc1C21OC(=O)c2cc(C(=O)Nc3ccc(N(CC(=O)OCOC(C)=O)CC(=O)OCOC(C)=O)c(OC)c3)ccc21 (stereo not drawn) [Compound 8h, bis(acetoxymethyl) 2,2′-((4-(3′-acetoxy-6′-(butylamino)-3-oxo-3H-spiro[isobenzofuran-1,9′-xanthen]-5-ylcarboxamido)-2-methoxyphenyl)azanediyl)diacetate]
- on/off (Tl^+ flux assay), maximum fold increase in fluorescence after Tl^+ addition [1]: 3.50 ± 0.07 fold
- λem (fluorescence emission maximum) [2]: 533 nm
- λmax (absorption maximum) [2]: 511 nm
- ε (molar absorptivity) [2]: 48000 M⁻¹ cm⁻¹

Compound: Cc1cc(NC(=O)Nc2ccc(F)c(F)c2)n(-c2ccccc2)n1 [ML297]
- EC50 (GIRK1 and GIRK2; dye 8c (5 μM, 1 h), FluxOR Red kit with background suppressor, 1 mM Tl^+): 257 ± 3.7 nM
- pEC50 and standard error of ML297 activation (GIRK1 and GIRK2; dye 8c (544x/593m filters), FluxOR Red Kit, Background Suppressor +): 6.63 ± 0.01
- pEC50 and standard error of ML297 activation (GIRK1 and GIRK2; dye 8c (544x/593m filters), FluxOR Red Kit, Background Suppressor −): 6.66 ± 0.04
- pEC50 and standard error of ML297 activation (GIRK1 and GIRK2; dye 8c, FluxOR Red Kit, Background Suppressor +): 6.59 ± 0.01
- pEC50 and standard error of ML297 activation (GIRK1 and GIRK2; dye 8c, FluxOR Red Kit, Background Suppressor −): 6.61 ± 0.02
- pEC50 and standard error of ML297 activation (GIRK1 and GIRK2; dye 8c, HCO3^− Stimulus Buffer, 1 mM Allura Red AC +): 6.69 ± 0.01
- pEC50 and standard error of ML297 activation (GIRK1 and GIRK2; dye 8c, HCO3^− Stimulus Buffer, 1 mM Allura Red AC −): 6.59 ± 0.03
- EC50 (GIRK1 and GIRK2; dye 8c, bicarbonate stimulus buffer, 500 μM Tl^+, no-wash, 1 mM Allura Red AC): 204 ± 5.2 nM
- pEC50 and standard error of ML297 activation (GIRK1 and GIRK2; dye FluxOR Red, FluxOR Red Kit, Background Suppressor +): 6.64 ± 0.01
- pEC50 and standard error of ML297 activation (GIRK1 and GIRK2; dye FluxOR Red, FluxOR Red Kit, Background Suppressor −): 6.41 ± 0.03
- pEC50 and standard error of ML297 activation (GIRK1 and GIRK2; dye FluxOR Red, HCO3^− Stimulus Buffer, 1 mM Allura Red AC −): 7.02 ± 0.1
- pEC50 and standard error of ML297 activation (GIRK1 and GIRK2; dye Thallos, FluxOR Red Kit, Background Suppressor +): 6.57 ± 0.04
- pEC50 and standard error of ML297 activation (GIRK1 and GIRK2; dye Thallos, FluxOR Red Kit, Background Suppressor −): 6.65 ± 0.02
- pEC50 and standard error of ML297 activation (GIRK1 and GIRK2; dye Thallos, HCO3^− Stimulus Buffer, 1 mM Allura Red AC +): 6.66 ± 0.01
- pEC50 and standard error of ML297 activation (GIRK1 and GIRK2; dye Thallos, HCO3^− Stimulus Buffer, 1 mM Allura Red AC −): 6.61 ± 0.01
- EC50 (GIRK1 and GIRK2; dye Thallos, bicarbonate stimulus buffer, 500 μM Tl^+, no-wash, 1 mM Allura Red AC): 219 ± 23 nM
- EC50 (GIRK1 and GIRK2; dye Thallos, same procedure (FluxOR Red kit with background suppressor)): 272 ± 23 nM
